What follows are compounds tested on LOX IMVI (assay: Cytotoxicity against human LOXIMVI cells assessed as growth inhibition at 10 uM after 48 hrs by SRB assay relative to control). Conditions: read-out: GI.
Format: functional
`NCCNc1ccc2cc(-c3nc4ccccc4[nH]3)c(=O)oc2c1` was tested, and the inhibition of growth at 10 µM was under 20%.
Work on `O=c1oc2cc(N3CCOCC3)ccc2cc1-c1nc2ccccc2[nH]1` yielded an inhibition of growth at 10 µM of under 20%.
Compound `O=c1oc2cc(NCCN3CCOCC3)ccc2cc1-c1nc2ccccc2[nH]1` has an inhibition of growth at 10 µM of under 20%.

Each compound was assayed on BT-549 (assay: Cytotoxicity against human BT549 cells assessed as growth inhibition at 10 uM after 48 hrs by SRB assay relative to control). Conditions: BT-549, 48 h, read-out: GI.
Format: functional
With `NCCNc1ccc2cc(-c3nc4ccccc4[nH]3)c(=O)oc2c1` the inhibition of growth at 10 µM was under 20%.
With `O=c1oc2cc(N3CCOCC3)ccc2cc1-c1nc2ccccc2[nH]1` the inhibition of growth at 10 µM was under 20%.
With `O=c1oc2cc(NCCN3CCOCC3)ccc2cc1-c1nc2ccccc2[nH]1` the inhibition of growth at 10 µM was under 20%.

What follows are compounds tested on NCI-H522 (assay: Cytotoxicity against human NCI-H522 cells assessed as growth inhibition at 10 uM after 48 hrs by SRB assay relative to control). Conditions: NCI-H522, 48 h, read-out: GI.
Format: functional
In the case of `NCCNc1ccc2cc(-c3nc4ccccc4[nH]3)c(=O)oc2c1`, the inhibition of growth at 10 µM was under 20%.
In the case of `O=c1oc2cc(N3CCOCC3)ccc2cc1-c1nc2ccccc2[nH]1`, the inhibition of growth at 10 µM was under 20%.
Compound `O=c1oc2cc(NCCN3CCOCC3)ccc2cc1-c1nc2ccccc2[nH]1` has an inhibition of growth at 10 µM of under 20%.

What follows are compounds tested on T47D (assay: Cytotoxicity against human T47D cells assessed as growth inhibition at 10 uM after 48 hrs by SRB assay relative to control). Conditions: read-out: GI.
Format: functional
With `NCCNc1ccc2cc(-c3nc4ccccc4[nH]3)c(=O)oc2c1` the inhibition of growth at 10 µM was under 20%.
Compound `O=c1oc2cc(N3CCOCC3)ccc2cc1-c1nc2ccccc2[nH]1` has an inhibition of growth at 10 µM of under 20%.
Work on `O=c1oc2cc(NCCN3CCOCC3)ccc2cc1-c1nc2ccccc2[nH]1` yielded an inhibition of growth at 10 µM of under 20%.

Each compound was assayed on OVCAR-5 (assay: Cytotoxicity against human OVCAR5 cells assessed as growth inhibition at 10 uM after 48 hrs by SRB assay relative to control). Conditions: OVCAR-5, 48 h, read-out: GI.
Format: functional
For `NCCNc1ccc2cc(-c3nc4ccccc4[nH]3)c(=O)oc2c1`, the inhibition of growth at 10 µM was under 20%.
Compound `O=c1oc2cc(N3CCOCC3)ccc2cc1-c1nc2ccccc2[nH]1` has an inhibition of growth at 10 µM of under 20%.
Work on `O=c1oc2cc(NCCN3CCOCC3)ccc2cc1-c1nc2ccccc2[nH]1` yielded an inhibition of growth at 10 µM of under 20%.

The compounds below were run on NCI-H322M (assay: Cytotoxicity against human NCI-H322M cells assessed as growth inhibition at 10 uM after 48 hrs by SRB assay relative to control). Conditions: read-out: GI.
Format: functional
`NCCNc1ccc2cc(-c3nc4ccccc4[nH]3)c(=O)oc2c1` showed an inhibition of growth at 10 µM of under 20%.
Work on `O=c1oc2cc(N3CCOCC3)ccc2cc1-c1nc2ccccc2[nH]1` yielded an inhibition of growth at 10 µM of under 20%.
In the case of `O=c1oc2cc(NCCN3CCOCC3)ccc2cc1-c1nc2ccccc2[nH]1`, the inhibition of growth at 10 µM was under 20%.

The compounds below were run on CAKI-1 (assay: Cytotoxicity against human Caki1 cells assessed as growth inhibition at 10 uM after 48 hrs by SRB assay relative to control). Conditions: CAKI-1, 48 h, read-out: GI.
Format: functional
For `NCCNc1ccc2cc(-c3nc4ccccc4[nH]3)c(=O)oc2c1`, the inhibition of growth at 10 µM was under 20%.
`O=c1oc2cc(N3CCOCC3)ccc2cc1-c1nc2ccccc2[nH]1` gave an inhibition of growth at 10 µM of under 20%.
For `O=c1oc2cc(NCCN3CCOCC3)ccc2cc1-c1nc2ccccc2[nH]1`, the inhibition of growth at 10 µM was under 20%.

These compounds were tested on OVCAR-3 (assay: Cytotoxicity against human OVCAR3 cells assessed as growth inhibition at 10 uM after 48 hrs by SRB assay relative to control). Conditions: OVCAR-3, 48 h, read-out: GI.
Format: functional
`NCCNc1ccc2cc(-c3nc4ccccc4[nH]3)c(=O)oc2c1` was tested, and the inhibition of growth at 10 µM was under 20%.
For `O=c1oc2cc(N3CCOCC3)ccc2cc1-c1nc2ccccc2[nH]1`, the inhibition of growth at 10 µM was under 20%.
For `O=c1oc2cc(NCCN3CCOCC3)ccc2cc1-c1nc2ccccc2[nH]1`, the inhibition of growth at 10 µM was under 20%.

Each compound was assayed on KM12 (assay: Cytotoxicity against human KM12 cells assessed as growth inhibition at 10 uM after 48 hrs by SRB assay relative to control). Conditions: KM12, 48 h, read-out: GI.
Format: functional
With `NCCNc1ccc2cc(-c3nc4ccccc4[nH]3)c(=O)oc2c1` the inhibition of growth at 10 µM was under 20%.
In the case of `O=c1oc2cc(N3CCOCC3)ccc2cc1-c1nc2ccccc2[nH]1`, the inhibition of growth at 10 µM was under 20%.
`O=c1oc2cc(NCCN3CCOCC3)ccc2cc1-c1nc2ccccc2[nH]1` gave an inhibition of growth at 10 µM of under 20%.

The compounds below were run on UACC-257 (assay: Cytotoxicity against human UACC257 cells assessed as growth inhibition at 10 uM after 48 hrs by SRB assay relative to control). Conditions: UACC-257, 48 h, read-out: GI.
Format: functional
Work on `NCCNc1ccc2cc(-c3nc4ccccc4[nH]3)c(=O)oc2c1` yielded an inhibition of growth at 10 µM of under 20%.
`O=c1oc2cc(N3CCOCC3)ccc2cc1-c1nc2ccccc2[nH]1` showed an inhibition of growth at 10 µM of under 20%.
For `O=c1oc2cc(NCCN3CCOCC3)ccc2cc1-c1nc2ccccc2[nH]1`, the inhibition of growth at 10 µM was under 20%.

These compounds were tested on SK-MEL-28 (assay: Cytotoxicity against human SK-MEL-28 cells assessed as growth inhibition at 10 uM after 48 hrs by SRB assay relative to control). Conditions: SK-MEL-28, 48 h, read-out: GI.
Format: functional
`NCCNc1ccc2cc(-c3nc4ccccc4[nH]3)c(=O)oc2c1` was tested, and the inhibition of growth at 10 µM was under 20%.
`O=c1oc2cc(N3CCOCC3)ccc2cc1-c1nc2ccccc2[nH]1` was tested, and the inhibition of growth at 10 µM was under 20%.
`O=c1oc2cc(NCCN3CCOCC3)ccc2cc1-c1nc2ccccc2[nH]1` showed an inhibition of growth at 10 µM of under 20%.

The compounds below were run on SF-295 (assay: Cytotoxicity against human SF295 cells assessed as growth inhibition at 10 uM after 48 hrs by SRB assay relative to control). Conditions: SF-295, 48 h, read-out: GI.
Format: functional
With `NCCNc1ccc2cc(-c3nc4ccccc4[nH]3)c(=O)oc2c1` the inhibition of growth at 10 µM was under 20%.
`O=c1oc2cc(N3CCOCC3)ccc2cc1-c1nc2ccccc2[nH]1` gave an inhibition of growth at 10 µM of under 20%.
`O=c1oc2cc(NCCN3CCOCC3)ccc2cc1-c1nc2ccccc2[nH]1` showed an inhibition of growth at 10 µM of under 20%.

These compounds were tested on A549 (assay: Cytotoxicity against human A549 cells assessed as growth inhibition at 10 uM after 48 hrs by SRB assay relative to control). Conditions: A549, 48 h, read-out: GI.
Format: functional
Work on `NCCNc1ccc2cc(-c3nc4ccccc4[nH]3)c(=O)oc2c1` yielded an inhibition of growth at 10 µM of under 20%.
With `O=c1oc2cc(N3CCOCC3)ccc2cc1-c1nc2ccccc2[nH]1` the inhibition of growth at 10 µM was under 20%.
With `O=c1oc2cc(NCCN3CCOCC3)ccc2cc1-c1nc2ccccc2[nH]1` the inhibition of growth at 10 µM was under 20%.

The compounds below were run on SK-MEL-2 (assay: Cytotoxicity against human SK-MEL-2 cells assessed as growth inhibition at 10 uM after 48 hrs by SRB assay relative to control). Conditions: SK-MEL-2, 48 h, read-out: GI.
Format: functional
In the case of `NCCNc1ccc2cc(-c3nc4ccccc4[nH]3)c(=O)oc2c1`, the inhibition of growth at 10 µM was under 20%.
For `O=c1oc2cc(N3CCOCC3)ccc2cc1-c1nc2ccccc2[nH]1`, the inhibition of growth at 10 µM was under 20%.
Work on `O=c1oc2cc(NCCN3CCOCC3)ccc2cc1-c1nc2ccccc2[nH]1` yielded an inhibition of growth at 10 µM of under 20%.

What follows are compounds tested on SR (assay: Cytotoxicity against human SR cells assessed as growth inhibition at 10 uM after 48 hrs by SRB assay relative to control). Conditions: read-out: GI.
Format: functional
Compound `NCCNc1ccc2cc(-c3nc4ccccc4[nH]3)c(=O)oc2c1` has an inhibition of growth at 10 µM of under 20%.
In the case of `O=c1oc2cc(N3CCOCC3)ccc2cc1-c1nc2ccccc2[nH]1`, the inhibition of growth at 10 µM was under 20%.

What follows are compounds tested on SK-MEL-5 (assay: Cytotoxicity against human SK-MEL-5 cells assessed as growth inhibition at 10 uM after 48 hrs by SRB assay relative to control). Conditions: SK-MEL-5, 48 h, read-out: GI.
Format: functional
Compound `NCCNc1ccc2cc(-c3nc4ccccc4[nH]3)c(=O)oc2c1` has an inhibition of growth at 10 µM of under 20%.
For `O=c1oc2cc(N3CCOCC3)ccc2cc1-c1nc2ccccc2[nH]1`, the inhibition of growth at 10 µM was under 20%.
`O=c1oc2cc(NCCN3CCOCC3)ccc2cc1-c1nc2ccccc2[nH]1` gave an inhibition of growth at 10 µM of under 20%.

— ChEMBL document CHEMBL2396528, “Synthesis of new conjugated coumarin-benzimidazole hybrids and their anticancer activity” (2013)
